Data from patent US5395827A, “ω-[2-(phosphonoalkyl)phenyl]-2-aminoalkanoic acids as antagonists of excitatory amino acid receptors” (priority 1993, dated 1995).

How the values were obtained:
[1] = target: kainic acid (KA) receptor; experiment: Inhibition of KA-induced currents in rat brain mRNA-injected Xenopus oocytes; type: cell-based; conditions: for Ki, inhibition of KA-induced currents: Table I, Xenopus oocytes injected with rat brain mRNA, IC50 converted by Cheng-Prusoff equation; for Ki: read-out: Ki values (Table I)
Protocol: (§1) Defolliculated oocytes obtained from Xenopus laevis females were injected with 30-75 ng of poly (A^+) mRNA obtained from 21-day old male Sprague-Dawley rats. Oocytes are placed individually in […] of antibiotic-supplemented modified Barthes solution (MBS, containing in mM: NaCl, 88; KCl, 1.0; NaHCO3, 2.4; HEPES, 10; MgSO4, 0.82; Ca(NO3)2, 0.33) in 96-well sterile plates and cultured for 48-120 hours prior to experimentation. Oocytes are inspected every 24 hours at which time the bathing solution is replaced with fresh MBS.
(§2) For electrophysiological studies, oocytes are positioned in a small recording chamber ([…]) and superfused with antibiotic-free MBS supplemented with CaCl2 (final concentration=1.4 mM). For NMDA studies, MgSO4 is replaced with NaSO4 (0.55 mM). Oocytes are impaled with a single glass microelectrode, voltage-clamped at -60 to -70 mV, and perfused by gravity feed at a rate of 3-5 ml/min at room temperature. Drugs are dissolved in the perfusate (pH adjusted to 7.3-7.4) and perfused for 1-2 min or until the response has reached a plateau, followed by a 4 min perfusion in the absence of drug(s). Antagonists are coperfused with agonists. MBS used in NMDA assays is prepared from "glycine-free", deionized water.
(§3) Potencies to inhibit kainic acid-, AMPA- and NMDA/glycine-induced currents are determined from concentration-response curves. IC50 values and Hill coefficients are determined by analysis of indirect Hill plots. IC50 values are converted to Ki values for comparison purposes using the Cheng-Prusoff equation.

AMPA receptor = experiment: Inhibition of AMPA-induced currents in rat brain mRNA-injected Xenopus oocytes; type: cell-based; conditions: Table I; Xenopus oocytes injected with rat brain mRNA; IC50 converted by Cheng-Prusoff equation
Protocol: as §1, §2, §3

[2] = tested on: choline acetyltransferase (ChAT), marker for striatal cholinergic interneurons; experiment: Kainic acid-induced striatal toxicity, choline acetyltransferase (ChAT) activity; type: in vivo, rat (male Sprague-Dawley)
Protocol: (§4) Kainic acid-induced lesion studies were performed using rats (male Sprague-Dawley, 200-250 g, Harlan Industries). Animals were anesthetized with Chloropent (1.5 ml/kg) and a cannula was inserted into the corpus striatum at the coordinates A 0.8, V 4.3, L 3.0 (bregma=0) using standard stereotaxic procedures. Compounds were dissolved in dH2 O and neutralized using dilute NaOH, and administered over a period of 2 min in a final volume of […]. Following an additional 2 min the cannula was withdrawn, the incision closed with woundclips, and the animals returned to their home cage for a 3 day recovery period. Kainic acid (10 nmoles) was used to induce striatal lesions. Compound XX (300 nmoles) was coadministered with kainic acid.
(§5) Following decapitation, the corpus striatum ipsiand contralateral to the injection were removed, immediately frozen on dry ice, and stored at -80° C. until assayed. The activities of choline acetyltransferase (ChAT) and glutamic acid decarboxylase (GAD), markers for striatal cholinergic and GABAergic interneurons, respectively, were determined using standard procedures to assess the extent of the lesion.
(§6) Ka-induced lesions were performed as described in the text. The results are expressed as the percentage of enzyme activity in the ipsilateral (injected) striatum relative to enzyme activity in the contralateral (uninjected) striatum. The values represent the mean+standard deviation of 4 (Example I) or 12 (vehicle) determinations.

[3] = tested on: glutamic acid decarboxylase (GAD), marker for striatal GABAergic interneurons; experiment: Kainic acid-induced striatal toxicity, glutamic acid decarboxylase (GAD) activity; type: in vivo, rat (male Sprague-Dawley)
Protocol: as §4, §5, §6

PTZ-induced seizures = experiment: Protection against pentylenetetrazole (PTZ)-induced seizures; type: in vivo, mouse (male CF-1); conditions: for ED50: Mus musculus, ip, 0.5 h, i.p.; for ED50 / ED50 against PTZ-induced seizures, i.c.v.: 30 min before s.c. PTZ 85 mg/kg
Protocol: Animals were then placed in individual observation cages and monitored for 30 min for the appearance of clonic convulsions. Failure to observe a clonic convulsion lasting at least 5 sec during the observation period was considered evidence of anticonvulsant activity.
PTZ seizure studies were performed as described in the text.

NMDA = conditions: U.S. Pat. No. 4,657,899; cited from earlier work
kainate receptors = conditions: U.S. Pat. No. 4,657,899, Table I on column 13; cited from earlier work
[4] = coadministered (300 nmoles) with kainic acid (10 nmoles), intrastriatal, 3 day recovery, mean+standard deviation of 4
[5] = coadministration of kainic acid with Example I
[6] = intrastriatal injection of kainic acid alone (10 nmoles)

Row | Compound | Ki, inhibition of KA-induced currents [1] | Ki [1] | Ki (AMPA receptor) | further results
1 | Cc1cccc(C[C@H](N)C(=O)O)c1CCP(=O)(O)O [Example 15, 3-Methyl-2-(2-phosphonoethyl)phenylalanine] | > 100 µM |  |  | 
2 | Cc1ccc(CCP(=O)(O)O)c(C[C@H](N)C(=O)O)c1 [Example 1, 5-Methyl-2-(2-phosphonoethyl)phenylalanine] | 11 µM | < 100 µM | 13 µM | ChAT, % Activity of Contralateral Striatum [2, 4]: 98 ± 6%; reduction in ChAT activity [2, 5]: 2%; GAD, % Activity of Contralateral Striatum [3, 4]: 88 ± 17%; reduction in GAD activity [3, 5]: 12%; ED50 (PTZ-induced seizures): 98 mg/kg; potency relative to CPP against PTZ-induced seizures (PTZ-induced seizures; i.c.v.): ~2 times; ED50 against PTZ-induced seizures, i.c.v. (PTZ-induced seizures; i.c.v.): 0.09 nmol; protection against PTZ-induced seizures (in words) (PTZ-induced seizures; mouse, in vivo): dose-dependent protection against PTZ-induced seizures; effect against PTZ-induced seizures following systemic administration (in words) (PTZ-induced seizures; systemic (i.p.) administration, compared with CPP): effective following systemic administration, but was less potent than CPP
3 | NC(Cc1ccccc1CP(=O)(O)O)C(=O)O (stereo not drawn) [2-amino-3-[2-phosphonomethylphenyl]propanoic acid] |  |  |  | NMDA antagonism (in words) (NMDA): antagonists of NMDA; binding affinity for kainate receptors (in words) (kainate receptors): very low binding affinity
4 | CC(C)(C)c1ccc(CCP(=O)(O)O)c(C[C@H](N)C(=O)O)c1 [Example 10, 5-t-Butyl-2-(2-phosphonoethyl)phenylalanine] | 29 µM |  |  | 
5 | N[C@@H](Cc1cc(-c2ccccc2)ccc1CCP(=O)(O)O)C(=O)O [Example 11, 5-Phenyl-2-(2phosphonoethyl)-phenylalanine] | 76 µM | < 100 µM |  | 
6 | C=C(C)[C@H]1CN[C@H](C(=O)O)[C@H]1CC(=O)O [kainic acid, reference compound] |  |  |  | reduction in ChAT activity [2, 6]: 68%; reduction in GAD activity [3, 6]: 55%
7 | NC(CCCc1ccccc1CP(=O)(O)O)C(=O)O (stereo not drawn) [2-amino-5-[2-phosphonomethylphenyl]pentanoic acid] |  |  |  | NMDA antagonism (in words) (NMDA): antagonists of NMDA; binding affinity for kainate receptors (in words) (kainate receptors): very low binding affinity
8 | CCc1ccc(CCP(=O)(O)O)c(C[C@H](N)C(=O)O)c1 [Example 2, 5-Ethyl-2-(2-phosphonoethyl)phenylalanine] | 17 µM | < 100 µM | 50 µM | 
9 | N[C@@H](Cc1cc(I)ccc1CCP(=O)(O)O)C(=O)O [Example 6, 5-Iodo-2-(2-phosphonoethyl)phenylalanine] | 3.6 µM | < 100 µM | 16 µM | 
10 | NC(Cc1ccccc1CCCP(=O)(O)O)C(=O)O (stereo not drawn) [2-amino-3-[2-(3-phosphonopropyl)phenyl]propanoic acid] |  |  |  | NMDA antagonism (in words) (NMDA): antagonists of NMDA; binding affinity for kainate receptors (in words) (kainate receptors): very low binding affinity
11 | O=c1[nH]c2cc([N+](=O)[O-])c([N+](=O)[O-])cc2[nH]c1=O [DNQX, reference compound] | 0.1 µM |  | 0.25 µM | 
12 | N[C@@H](Cc1cc(Br)ccc1CCP(=O)(O)O)C(=O)O [Example 3, 5-Bromo-2-(2-phosphonoethyl)phenylalanine] | 10 µM | < 100 µM | 61 µM | 
13 | Cc1cc(C)c(CCP(=O)(O)O)c(C[C@H](N)C(=O)O)c1 [Example 7, 3,5-Dimethyl-2-(2-phosphonoethyl)phenylalanine] | 12 µM |  | 39 µM | 
14 | O=C(O)C1CN(CCCP(=O)(O)O)CCN1 (stereo not drawn) [CPP, reference compound] |  |  |  | ED50 (PTZ-induced seizures): 7.3 mg/kg; ED50 against PTZ-induced seizures, i.c.v. (PTZ-induced seizures; i.c.v.): 0.15 nmol
15 | Cl.N[C@@H](Cc1cc(C2CCCCC2)ccc1CCP(=O)(O)O)C(=O)O [Example 12, 5-Cyclohexyl-2-(2-phosphonoethyl) phenylalanine hydrochloride] | 139 µM |  |  | 
16 | N[C@@H](Cc1cc(Cl)ccc1CCP(=O)(O)O)C(=O)O [Example 4, 5-Chloro-2-(2-phosphonoethyl)phenylalanine] | 15 µM | < 100 µM | 48 µM | 
17 | CCOC(=O)[C@@H](N)Cc1cc(C)ccc1CCP(=O)(O)O [Example 17, 5-Methyl-2-(2-phosphonoethyl)phenylalanine ethyl ester] | > 100 µM |  |  | 
18 | Cl.N[C@@H](Cc1cccc(-c2ccccc2)c1CCP(=O)(O)O)C(=O)O [Example 16, 3-Phenyl-2-(2-phosphonoethyl) phenylalanine hydrochloride] | 83 µM |  |  | 
19 | N[C@@H](Cc1ccc([N+](=O)[O-])cc1CCP(=O)(O)O)C(=O)O [Example 22, 4-Nitro-2-(2-phosphonoethyl)phenylalanine] | 13 µM |  |  | 
20 | N[C@@H](Cc1cc(F)ccc1CCP(=O)(O)O)C(=O)O [Example 5, 5-Fluoro-2-(2-phosphonoethyl)phenylalanine] | 68 µM | < 100 µM | 167 µM | 
21 | NC(Cc1ccccc1CCP(=O)(O)O)C(=O)O (stereo not drawn) [2-amino-3-[2-(2-phosphonoethyl)phenyl]propanoic acid] |  |  |  | NMDA antagonism (in words) (NMDA): antagonists of NMDA; binding affinity for kainate receptors (in words) (kainate receptors): very low binding affinity
